Laboratory results: patent US12507703B2, “Methods, devices and compositions for preserving human milk” (The Trustees of Princeton University, priority 2023, dated 2025)
“And” between values parts separate entries of the source, which are not always exact repeats. Identical values can stand only once. Where a SMILES comes first, the peptide text is derived from it.

system: lipase; assay: Lipase/lipolysis assay (EnzChek Lipase Substrate, quenched BODIPY-fatty acid conjugate) on stored human milk; also: test concentration or dose not given here

In order of falling “Lipase (RFU)” value:
1. Cl.N=C(N)NCCC[C@H](N)C(=O)O [L-Arginine (hydrochloride)]  1273.102 RFU
2. (−)-Menthone  1263.606 RFU
3. Lactate  1249.686 RFU
4. C[n+]1cccc(C(N)=O)c1 [TRIA-662]  1140.39 RFU
5. O=C1O[C@H]([C@H](O)CO)C(O)=C1O [Erythorbic acid]  1131.679 RFU
6. C[C@]12CC[C@@H](O)C[C@H]1CC[C@@H]1[C@@H]2[C@@H](O)C[C@@]2(C)[C@H]1CC[C@]2(O)C(=O)CO [Tetrahydrocortisol]  1127.321 RFU
7. CCCCCCCCCC(C)=O [Compound 2-Undecanone, 2-Undecanone]  1119.854 RFU
8. O=c1ccc2cc3ccoc3c(O)c2o1 [Xanthotoxol]  1117.591 RFU
9. CC(C)(C)[C@]1(O)CC2OC(=O)CC23C(=O)OC2OC(=O)[C@H](O)C231 (stereo partly shown) [Bilobalide]  1114.018 RFU
10. COc1nccc(N)n1 [Compound 2-O-Methylcytosine]  1109.623 RFU
11. Hyaluronic acid  1101.829 RFU
12. CC1(C)C[C@H]2C3=CC[C@@H]4[C@@]5(C)CC[C@H](O)[C@](C)(CO)[C@@H]5CC[C@@]4(C)[C@]3(C)CC[C@@]2(C)[C@H](O)[C@@H]1O [Soyasapogenol A]  1098.785 RFU
13. Riboflavin (phosphate sodium)  1091.899 RFU
14. CC(C)=CCc1cc2c(cc1O)oc(=O)c1c3ccc(O)cc3oc21 [Psoralidin]  1084.87 RFU
15. CC1(C)CC[C@]2(C(=O)O)CC[C@]3(C)C(=CC[C@@H]4[C@@]5(C)CC[C@@H](O)C(C)(C)[C@@H]5CC[C@]43C)[C@@H]2C1 [3-Epioleanolic acid]  1064.911 RFU
16. CNC(C)(C)C(=O)O [MeAIB]  1061.964 RFU
17. Oc1cc(O)c2c(c1)O[C@@]1(c3ccc(O)c(O)c3)Oc3cc(O)c4c(c3[C@@H]2[C@H]1O)O[C@H](c1ccc(O)c(O)c1)[C@H](O)[C@H]4c1c(O)cc(O)c2c1O[C@H](c1ccc(O)c(O)c1)[C@H](O)C2 [Cinnamtannin B-1]  1061.374 RFU
18. O=C(/C=C/c1ccc(O)c(O)c1)O[C@@H]1C[C@@](O)(C(=O)O)C[C@@H](O)[C@@H]1O [Neochlorogenic acid]  1024.869 RFU
19. COc1cc(-c2[o+]c3cc(O)cc(O)c3cc2O)cc(O)c1O.[Cl-] [Petunidin (chloride)]  1018.887 RFU
20. NC(=O)C1=CN([C@@H]2O[C@H](COP(=O)([O-])OP(=O)([O-])OC[C@H]3O[C@@H](n4cnc5c(N)ncnc54)[C@H](O)[C@@H]3O)[C@@H](O)[C@H]2O)C=CC1.[Na+].[Na+] [NADH (disodium salt)]  996.9696 RFU
21. β-D-Glucan from barley  995.347 RFU
22. O=C(O)[C@H]1O[C@@H](Oc2cc(O)c3c(=O)cc(-c4ccc(O)cc4)oc3c2)[C@H](O)[C@@H](O)[C@@H]1O [Apigenin-7-glucuronide]  991.8672 RFU
23. CCCCCCCC/C=C\CCCCCCCC(=O)O[C@H]1CC[C@@]2(C)C(=CC[C@H]3[C@@H]4CC[C@H]([C@H](C)CCCC(C)C)[C@@]4(C)CC[C@@H]32)C1 [Cholesteryl oleate]  988.5488 RFU
24. O=C(O[C@@H]1Cc2c(O)cc(O)cc2O[C@@H]1c1ccc(O)c(O)c1)c1cc(O)c(O)c(O)c1 [(−)-Epicatechin gallate]  982.8268 RFU
25. O=C(c1ccccc1)C(O)c1ccccc1 (stereo not shown) [Benzoin]  968.9971 RFU
26. C[C@H]1[C@H](C)CC[C@]2(C(=O)O)CC[C@]3(C)C(=CC[C@@H]4[C@@]5(C)CC[C@H](O)C(C)(C)[C@@H]5CC[C@]43C)[C@H]12 [3-Epiursolic Acid]  968.3096 RFU
27. CCCCCCCCCCCCCCCC(=O)OC[C@H](COP(=O)([O-])OCC[N+](C)(C)C)OC(=O)CCCCCCCCCCCCCCC [DPPC]  959.6761 RFU
28. NCC(=O)N1CCC[C@H]1C(=O)O [H-Gly-Pro-OH] (H-Gly-Pro-OH)  952.5324 RFU
29. CCCCCCCCCCCCCC(=O)O[C@H](CC(=O)[O-])C[N+](C)(C)C [Tetradecanoylcarnitine]  951.8251 RFU
30. O=C([O-])C(O)Cc1ccc(O)c(O)c1.[Na+] (stereo not shown) [Danshensu (sodium salt)]  948.7665 RFU
31. CCCCCC(=O)O[C@H](CC(=O)[O-])C[N+](C)(C)C [L-Hexanoylcarnitine]  948.6206 RFU
32. O=C(O)/C=C(\CC(=O)O)C(=O)O [trans-Aconitic acid]  946.0721 RFU
33. O=C(O)c1cc(O)c2c(c1)C(=O)c1cccc(O[C@@H]3O[C@H](CO)[C@@H](O)[C@H](O)[C@H]3O)c1C2=O [Rhein 8-Glucoside]  942.9082 RFU
34. COc1ccc(C[C@H]2COC(=O)[C@]2(O)Cc2ccc(O[C@@H]3O[C@H](CO)[C@@H](O)[C@H](O)[C@H]3O)c(OC)c2)cc1OC [Tracheloside]  940.7065 RFU
35. C[C@@H]1O[C@@H](OC[C@H]2O[C@@H](Oc3c(-c4ccc(O)cc4)oc4cc(O)cc(O)c4c3=O)[C@H](O[C@@H]3OC[C@@H](O)[C@H](O)[C@H]3O)[C@@H](O)[C@@H]2O)[C@H](O)[C@H](O)[C@H]1O [Camelliaside B]  927.4235 RFU
36. CCCCC/C=C\C/C=C\CCCCCCCC(=O)O[C@H]1CC[C@@]2(C)C(=CC[C@H]3[C@@H]4CC[C@H]([C@H](C)CCCC(C)C)[C@@]4(C)CC[C@@H]32)C1 [Cholesteryl linoleate]  922.3562 RFU
37. CC(C)=CCc1cc2ccc(=O)oc2cc1O [Demethylsuberosin]  917.5135 RFU
38. COc1c(O)cc2oc(-c3ccc(O)cc3)cc(=O)c2c1O [Hispidulin]  914.8964 RFU
39. COc1cc2ccc(=O)oc2c2ccoc12 [Sphondin]  913.6372 RFU
40. OC[C@H]1O[C@@H](O[C@H]2[C@H](O)[C@@H](O)[C@@H](O)O[C@@H]2CO)[C@H](O)[C@@H](O)[C@H]1O [Lactose]  912.5223 RFU
41. C/C=C/C(=O)C1=C(C)C=CCC1(C)C [Damascenone]  912.4849 RFU
42. Nc1nc2nc[nH]c2c(=O)[nH]1 [Guanine]  909.1174 RFU
43. O=C1O[C@H]([C@H](O)CO)C([O-])=C1O.[Na+] [Sodium erythorbate]  904.5416 RFU
44. CC(C)=C[C@H]1C[C@](C)(O)[C@@H]2[C@H]3CC[C@@H]4[C@@]5(C)CC[C@H](O[C@@H]6OC[C@H](O)[C@H](O[C@@H]7O[C@H](CO)[C@@H](O)[C@H](O)[C@H]7O[C@@H]7OC[C@@H](O)[C@H](O)[C@H]7O)[C@H]6O[C@@H]6O[C@@H](C)[C@H](O)[C@@H](O)[C@H]6O)C(C)(C)[C@@H]5CC[C@@]4(C)[C@@]34CO[C@@]2(C4)O1 [Jujuboside B]  877.6814 RFU
45. CC(C)C[C@H](NC(=O)CN)C(=O)O [Glycyl-L-leucine]  829.1827 RFU
46. O=CC[C@H](O)[C@H](O)CO [Thyminose]  811.3551 RFU
47. N[C@@H](CCCCNC(=O)CCCC[C@@H]1SC[C@@H]2NC(=O)N[C@@H]21)C(=O)O [Biocytin]  807.0879 RFU
48. C[C@@H]1CC[C@@]2(OC1)O[C@H]1C[C@H]3[C@@H]4CC[C@@H]5C[C@@H](O)CC[C@]5(C)[C@H]4CC[C@]3(C)[C@H]1[C@@H]2C [Smilagenin]  790.1194 RFU
49. Theaflavin-3′-gallate  780.4384 RFU
50. O=C(O)CCCCCCCCCCCO [12-Hydroxydodecanoic acid]  778.3097 RFU
51. C[C@H](CCC(=O)O)[C@H]1CC[C@H]2[C@@H]3CC[C@@H]4CC(O)CC[C@]4(C)[C@H]3CC(=O)[C@]12C (stereo partly shown) [12-Ketodeoxycholic acid]  778.2255 RFU
52. C[C@H]1CCCC(=O)CCC/C=C/c2cc(O)cc(O)c2C(=O)O1 [Zearalenone]  758.7174 RFU
53. O=C([O-])O.[Na+] [Sodium bicarbonate]  751.602 RFU
54. Nc1ncnc2c1ncn2[C@@H]1O[C@H](COP(=O)(O)OP(=O)([O-])OP(=O)([O-])O)[C@@H](O)[C@H]1O.O.[Na+].[Na+] [ATP (disodium salt hydrate)]  750.5023 RFU
55. O=C1c2ccccc2C(=O)c2cc(CO)ccc21 [2-(Hydroxymethyl)anthraquinone]  723.6408 RFU
56. O=c1cc(-c2ccc(O)c(O)c2)oc2c([C@@H]3O[C@H](CO)[C@@H](O)[C@H](O)[C@H]3O)c(O)cc(O)c12 [Orientin]  715.9231 RFU
57. COc1c(O)cc2oc(-c3ccc(O)c(O)c3)cc(=O)c2c1O [Nepetin]  666.0077 RFU

`CCCCC/C=C/C=C/C(=O)NCC(C)C` [Pellitorine] was tested, and the “Lipase (RFU)” value was 785.2318 RFU and 741.5651 RFU.
`O=P(O)(O)OP(=O)(O)O` [Pyrophosphate] was tested, and the “Lipase (RFU)” value was 1218.619 RFU and 873.0451 RFU.
`COc1cc(C)ccc1O` [Creosol] was tested, and the “Lipase (RFU)” value was 835.9293 RFU and 462.1743 RFU.
Rhamnose was tested, and the “Lipase (RFU)” value was 816.2993 RFU and 1253.305 RFU.
`N=C(N)NCCC[C@H](N)C(=O)O` [L-Arginine] was tested, and the “Lipase (RFU)” value was 753.4686 RFU and 980.9809 RFU and 913.1858 RFU.
With `COc1cc(C=O)cc(OC)c1O` [Syringaldehyde] the “Lipase (RFU)” value was 938.0511 RFU and 949.8732 RFU.
With `C[C@H](CCC(=O)NCCS(=O)(=O)O)[C@H]1CC[C@H]2[C@@H]3[C@H](O)C[C@@H]4C[C@H](O)CC[C@]4(C)[C@H]3C[C@H](O)[C@]12C` [Taurocholic Acid] the “Lipase (RFU)” value was 1299.592 RFU and 949.1523 RFU and 900.9931 RFU.
